Measurements reported in US12178841B2, “Treatment of non-cystic fibrosis bronchiectasis” (priority 2021, dated 2024).
Entries after “also recorded” stand apart in the source; their conditions may differ. Like-named read-outs stand apart in the source and are kept apart here.

What was measured:
[1] = 1 MIU [33 mg CBA] via I-neb twice a day, up to 6 months, placebo 0.45% saline, cited from earlier work
[2] = ORBIT-3 and RESPIRE-2 trials; cited from earlier work
[3] = parameters: species or system human; conditions: in vivo
Text: Safety Variables • incidence of TEAEs; • absolute changes in percent-predicted FEV1 from baseline (Visit 2) to end of treatment (Visit 7); • number of subjects experiencing bronchospasm clinically or spirometrically determined following IMP administration at the start and end of treatment; • P. aeruginosa resistance to colistin sulphate as determined by in-vitro susceptibility testing on sputum from Screening/Randomisation (Visit 1/Visit 2) to Visits 3, 5 and end of treatment (Visit 7) as well as on sputum from Exacerbation Visits and clinic visits due to pneumonia; • emergence of other bacterial colonies and any developing resistance in sputum from Screening (Visit 1) to End of Treatment (Visit 7); • haematology, clinical chemistry and renal function tests; • physical examination and vital signs data; • 12-lead electrocardiogram

[4] = human, in vivo; cited from earlier work
[5] = PROMIS I Phase III clinical study: pulmonary exacerbations under inhaled CMS by I-neb vs placebo; format: in vivo, human
Pseudomonas aeruginosa = experiment: PROMIS I: Pseudomonas aeruginosa density in sputum; format: in vivo, human; conditions: for Mean change from baseline in P. aeruginosa density (mITT): n = 176
Text: Least square means in each treatment group, least square mean difference between treatments, their 95% CIs and associated p-values will be estimated.
Summary statistics of the P. aeruginosa density (log 10 CFU/g sputum) and change from baseline (Visit 2) will be provided by treatment group for each trial visit.
Results of the quantitative analysis for P. aeruginosa density will be presented as colony forming units (CFU) count per gram sputum.

colistin
time to first exacerbation (primary endpoint) vs placebo [1]: not to be associated with a statistically significant improvement

O=C(O)c1cn(C2CC2)c2cc(N3CCNCC3)c(F)cc2c1=O [ciprofloxacin]
primary endpoints [2]: failed to achieve their primary endpoints

colistimethate sodium
broncospasm experienced clinically [3]: 0.6% | safety and tolerability (in words) [3]: safe and well tolerated | time to first exacerbation (primary endpoint) vs placebo [1]: not statistically different | time to first exacerbation (primary endpoint) vs placebo ([1]; listed as CMS): failed to achieve its primary endpoint | adverse respiratory effects (cough, dyspnoea, bronchospasm, sore throat), people affected [4]: at least 1 in 10 | annual rate of exacerbations ([5]; CMS 1 MIU (33 mg CBA) by I-neb twice a day, 12 months, placebo 0.95): 0.58 per patient per year | severe exacerbations (requiring intravenous antibiotics and/or hospitalization), RR ([5]; CMS I-neb vs placebo, 95% CI 0.23-0.74, p=0.003): 0.41 | time to first exacerbation, Hazard Ratio (HR) ([5]; CMS I-neb vs placebo, 95% CI 0.43-0.81, p=0.00074): 0.59 | rate ratio (RR) of annual rate of exacerbations vs placebo ([5]; CMS I-neb vs placebo, 95% CI 0.46-0.82, p=0.00101): 0.61 | Mean change from baseline in P. aeruginosa density (mITT) (Pseudomonas aeruginosa; Visit 3 (28 days)): −1.59 log10(CFU/mL) | Mean change from baseline in P. aeruginosa density (mITT) (Pseudomonas aeruginosa; Visit 5 (6 months)): −1.39 log10(CFU/mL) | Mean change from baseline in P. aeruginosa density (mITT) (Pseudomonas aeruginosa; Visit 6 (9 months)): −1.56 log10(CFU/mL) | Mean change from baseline in P. aeruginosa density (mITT) (Pseudomonas aeruginosa; Visit 7 (12 months/EOT), includes those who discontinued early): −0.86 log10(CFU/mL) | P. aeruginosa density (in words) (Pseudomonas aeruginosa; patients on colistimethate sodium over the study): fell rapidly and remained suppressed; also recorded: falls rapidly and remains suppressed
